Assay results from patent US20210238173A1, “MITOGEN-ACTIVATED PROTEIN KINASE KINASE 7 INHIBITORS” (Yeda Research and Development Co. Ltd., priority 2018, published 2021).

Legend:
MAP4K4 (HGK) = MAP4K4 (HGK) (Homo sapiens, UniProt O95819); assay: Kinome selectivity screen MAP4K4; assay type: biochemical; details: 1 μM compound
Procedure: (§1) Kinome Selectivity Screen:
(§2) Kinase selectivity was assessed using the Life Technologies SelectScreen Kinase Profiling Service in a custom panel of 76 kinases selected to provide broad representative coverage of all kinase families. Kinase activity assays employed either the Z′-LYTE or Adapta assay technologies with ATP concentrations at or near the KM, ATP for each kinase and a test compound concentration of 1 μM.

AURKB (Aurora B) = AURKB (Aurora B) (Homo sapiens, UniProt Q96GD4); assay: Kinome selectivity screen AURKB; assay type: biochemical; details: 1 μM compound
Procedure: as §1, §2

DCAMKL2 (DCK2) = DCAMKL2 (DCK2) (Homo sapiens, UniProt Q8N568); assay: Kinome selectivity screen DCAMKL2; assay type: biochemical; details: 1 μM compound
Procedure: as §1, §2

PHKG2 = PHKG2 (Homo sapiens, UniProt P15735); assay: Kinome selectivity screen PHKG2; assay type: biochemical; details: 1 μM compound
Procedure: as §1, §2

PLK1 = PLK1 (Homo sapiens, UniProt P53350); assay: Kinome selectivity screen PLK1; assay type: biochemical; details: 1 μM compound
Procedure: as §1, §2

CLK1 = CLK1 (Homo sapiens, UniProt P49759); assay: Kinome selectivity screen CLK1; assay type: biochemical; details: 1 μM compound
Procedure: as §1, §2

pATF2 in HEK293 cells = assay: pATF2 inhibition in HEK293 cells; assay type: cell-based; details: Homo sapiens
Procedure: HEK293, Beas2B and 3T3 cells were plated 24 hours before procedure on 384 well clear bottom black flat plates (Corning) pre-coated with Fibronectin (Sigma) diluted in PBS to a concentration of 5 μg/ml 45 minutes prior to cells introduction. Cells were plated using Multidrop™ Combi reagent dispenser (Thermo Fisher Scientific). Compound, reagents and antibody dispensing as well as washes were performed with a CyBio liquid handler (Analytik). Cells were pre-incubated with a small molecule or up to 1% DMSO for 2 h before fixation. HEK293, 3T3 or Beas2B cells were treated with 0.6M/0.2M/0.2M D-Sorbitol/PBS (Sigma) for 20/40/40 min. respectively, before fixation. Media was removed and wells were immediately fixed with 150 μl per well of 3.7% formaldehyde/PBS fixing solution for 20 min. Formaldehyde was then aspired and cells were permeabilized with 150 μl of 0.5% Triton x-100/PBS solution for 10 min. After aspiration cells were washed with ice-cold methanol and stored at −20° C., for 10 min. Methanol was aspired and cells were blocked with 150 μl blocking buffer (LICOR) for 90 min. Primary antibody Phospho-SAPK/JNK T183/Y185 (CST; 9251S) was diluted 1:1000 in blocking buffer and was applied 50 μl per well, except control wells to which only blocking buffer was applied, O.N. (16 h) at 4° C. with mild shaking. […] Wells signals were analyzed with Odyssey software. […]
To rapidly assess the cellular activity (EC50) with full dose response curves of the MKK7 covalent inhibitors, according to some embodiments of the present invention, an in-cell western assay was adapted to a 384 well plate format over traditional western blot, and monitored phospho-JNK (pJNK) levels in response to osmotic shock. […] The compound's activity was assessed by pre-treating cells with either compound or DMSO for 2 hours, followed by Sorbitol stimulation. The response of pJNK, and its substrates, pc-Jun and pATF2, was measured, as well as pP38, which is a substrate of MKK4 but not MKK7, and pERK in HEK293 cells, and the results are presented in Table 5 below.

[1] = biological target: PIK3CA/PIK3R1 (p110 alpha/p85 alpha) (Homo sapiens, UniProt P42336); assay: Kinome selectivity screen PIK3CA/PIK3R1; assay type: biochemical; details: 1 μM compound
Procedure: as §1, §2

CDK9/cyclin T1 = CDK9/cyclin T1 (Homo sapiens, UniProt P50750); assay: Kinome selectivity screen CDK9/cyclin T1; assay type: biochemical; details: 1 μM compound
Procedure: as §1, §2

SYK = SYK (Homo sapiens, UniProt P43405); assay: Kinome selectivity screen SYK; assay type: biochemical; details: 1 μM compound
Procedure: as §1, §2

CSNK2A1 (CK2 alpha 1) = CSNK2A1 (CK2 alpha 1) (Homo sapiens, UniProt P68400); assay: Kinome selectivity screen CSNK2A1; assay type: biochemical; details: 1 μM compound
Procedure: as §1, §2

RPS6KB1 (p70S6K) = RPS6KB1 (p70S6K) (Homo sapiens, UniProt P23443); assay: Kinome selectivity screen RPS6KB1; assay type: biochemical; details: 1 μM compound
Procedure: as §1, §2

GSK3B (GSK3 beta) = GSK3B (GSK3 beta) (Homo sapiens, UniProt P49841); assay: Kinome selectivity screen GSK3B; assay type: biochemical; details: 1 μM compound
Procedure: as §1, §2

PKN1 (PRK1) = PKN1 (PRK1) (Homo sapiens, UniProt Q16512); assay: Kinome selectivity screen PKN1; assay type: biochemical; details: 1 μM compound
Procedure: as §1, §2

catalytic domain of MKK7 = biological target: T1, catalytic domain of MKK7 (Homo sapiens, UniProt O14733); assay: Activity based fluorescent labeling in bacterial lysate overexpressing MKK7; assay type: binding; details: pre-incubated with the lysate
T1 construct: over-expressing MKK7 (103-426 residues); 6-His (C); made in house; host or cells: E. coli Rosetta2 BL21 (DE3), crude lysate

MAPKAPK2 = MAPKAPK2 (Homo sapiens, UniProt P49137); assay: Kinome selectivity screen MAPKAPK2; assay type: biochemical; details: 1 μM compound
Procedure: as §1, §2

FLT4 (VEGFR3) = FLT4 (VEGFR3) (Homo sapiens, UniProt P35916); assay: Kinome selectivity screen FLT4; assay type: biochemical; details: 1 μM compound
Procedure: as §1, §2

MAP4K5 (KHS1) = MAP4K5 (KHS1) (Homo sapiens, UniProt Q9Y4K4); assay: Kinome selectivity screen MAP4K5; assay type: biochemical; details: 1 μM compound
Procedure: as §1, §2

NEK1 = NEK1 (Homo sapiens, UniProt Q96PY6); assay: Kinome selectivity screen NEK1; assay type: biochemical; details: 1 μM compound
Procedure: as §1, §2

MAPK1 (ERK2) = MAPK1 (ERK2) (Homo sapiens, UniProt P28482); assay: Kinome selectivity screen MAPK1; assay type: biochemical; details: 1 μM compound
Procedure: as §1, §2

INSR = INSR (Homo sapiens, UniProt P06213); assay: Kinome selectivity screen INSR; assay type: biochemical; details: 1 μM compound
Procedure: as §1, §2

CSNK2A1 (CK2 alpha 1), sequence (P68400 whole entry): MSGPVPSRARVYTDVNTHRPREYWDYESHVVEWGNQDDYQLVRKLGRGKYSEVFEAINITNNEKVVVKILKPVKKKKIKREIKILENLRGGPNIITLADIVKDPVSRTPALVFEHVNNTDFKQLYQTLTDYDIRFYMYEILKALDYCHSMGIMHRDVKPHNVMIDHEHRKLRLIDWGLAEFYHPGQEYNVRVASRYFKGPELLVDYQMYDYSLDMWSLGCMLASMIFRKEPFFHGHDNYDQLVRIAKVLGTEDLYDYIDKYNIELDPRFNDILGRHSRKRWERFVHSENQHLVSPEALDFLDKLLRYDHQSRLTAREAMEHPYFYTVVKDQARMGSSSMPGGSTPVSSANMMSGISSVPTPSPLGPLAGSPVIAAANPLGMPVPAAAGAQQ
NEK1, sequence (Q96PY6 whole entry): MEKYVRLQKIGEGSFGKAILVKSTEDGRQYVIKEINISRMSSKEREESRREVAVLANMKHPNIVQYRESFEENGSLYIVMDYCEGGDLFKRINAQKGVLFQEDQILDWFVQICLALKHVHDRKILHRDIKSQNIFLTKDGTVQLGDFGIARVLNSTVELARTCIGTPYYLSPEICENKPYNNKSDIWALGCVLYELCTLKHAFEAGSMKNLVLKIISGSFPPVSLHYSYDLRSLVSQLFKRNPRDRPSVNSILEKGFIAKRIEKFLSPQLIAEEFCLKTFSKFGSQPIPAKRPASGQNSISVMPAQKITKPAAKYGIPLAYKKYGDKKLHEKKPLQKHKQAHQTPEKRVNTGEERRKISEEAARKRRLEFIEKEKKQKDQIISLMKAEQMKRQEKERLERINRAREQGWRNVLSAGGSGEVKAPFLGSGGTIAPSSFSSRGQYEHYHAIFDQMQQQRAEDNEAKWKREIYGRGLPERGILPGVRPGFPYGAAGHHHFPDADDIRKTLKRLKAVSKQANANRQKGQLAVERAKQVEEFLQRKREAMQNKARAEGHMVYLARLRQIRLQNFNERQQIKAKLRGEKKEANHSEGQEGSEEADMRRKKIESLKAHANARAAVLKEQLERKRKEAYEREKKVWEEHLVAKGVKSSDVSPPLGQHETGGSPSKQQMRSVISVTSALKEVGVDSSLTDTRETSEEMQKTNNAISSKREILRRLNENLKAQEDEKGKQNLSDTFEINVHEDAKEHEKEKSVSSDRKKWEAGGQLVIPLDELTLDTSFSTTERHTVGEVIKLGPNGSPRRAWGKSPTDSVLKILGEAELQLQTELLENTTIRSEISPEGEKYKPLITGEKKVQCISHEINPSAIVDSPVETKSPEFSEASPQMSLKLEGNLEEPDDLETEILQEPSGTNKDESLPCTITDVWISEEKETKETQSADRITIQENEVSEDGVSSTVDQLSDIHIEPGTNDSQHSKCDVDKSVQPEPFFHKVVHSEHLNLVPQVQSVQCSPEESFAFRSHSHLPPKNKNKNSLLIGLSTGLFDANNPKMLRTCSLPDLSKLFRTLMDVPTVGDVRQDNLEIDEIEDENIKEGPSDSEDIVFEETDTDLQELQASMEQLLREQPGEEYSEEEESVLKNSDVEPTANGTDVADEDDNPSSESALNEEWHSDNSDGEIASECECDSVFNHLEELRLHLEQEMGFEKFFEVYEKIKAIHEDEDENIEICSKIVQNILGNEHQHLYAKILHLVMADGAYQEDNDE
RPS6KB1 (p70S6K), sequence (P23443 whole entry): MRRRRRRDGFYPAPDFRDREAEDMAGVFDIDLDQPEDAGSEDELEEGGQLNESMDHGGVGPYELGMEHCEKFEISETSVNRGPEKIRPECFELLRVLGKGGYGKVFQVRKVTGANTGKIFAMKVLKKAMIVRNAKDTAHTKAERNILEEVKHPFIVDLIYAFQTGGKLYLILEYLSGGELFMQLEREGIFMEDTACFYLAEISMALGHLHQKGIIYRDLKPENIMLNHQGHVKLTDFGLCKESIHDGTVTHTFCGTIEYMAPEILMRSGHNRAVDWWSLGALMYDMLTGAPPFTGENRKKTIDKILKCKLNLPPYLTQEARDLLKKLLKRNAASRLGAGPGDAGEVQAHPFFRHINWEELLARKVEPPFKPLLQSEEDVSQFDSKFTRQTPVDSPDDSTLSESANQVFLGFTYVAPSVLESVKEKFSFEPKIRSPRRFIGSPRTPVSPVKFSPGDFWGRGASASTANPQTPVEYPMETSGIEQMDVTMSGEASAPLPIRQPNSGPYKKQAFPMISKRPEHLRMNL
INSR, sequence (P06213 28-1382): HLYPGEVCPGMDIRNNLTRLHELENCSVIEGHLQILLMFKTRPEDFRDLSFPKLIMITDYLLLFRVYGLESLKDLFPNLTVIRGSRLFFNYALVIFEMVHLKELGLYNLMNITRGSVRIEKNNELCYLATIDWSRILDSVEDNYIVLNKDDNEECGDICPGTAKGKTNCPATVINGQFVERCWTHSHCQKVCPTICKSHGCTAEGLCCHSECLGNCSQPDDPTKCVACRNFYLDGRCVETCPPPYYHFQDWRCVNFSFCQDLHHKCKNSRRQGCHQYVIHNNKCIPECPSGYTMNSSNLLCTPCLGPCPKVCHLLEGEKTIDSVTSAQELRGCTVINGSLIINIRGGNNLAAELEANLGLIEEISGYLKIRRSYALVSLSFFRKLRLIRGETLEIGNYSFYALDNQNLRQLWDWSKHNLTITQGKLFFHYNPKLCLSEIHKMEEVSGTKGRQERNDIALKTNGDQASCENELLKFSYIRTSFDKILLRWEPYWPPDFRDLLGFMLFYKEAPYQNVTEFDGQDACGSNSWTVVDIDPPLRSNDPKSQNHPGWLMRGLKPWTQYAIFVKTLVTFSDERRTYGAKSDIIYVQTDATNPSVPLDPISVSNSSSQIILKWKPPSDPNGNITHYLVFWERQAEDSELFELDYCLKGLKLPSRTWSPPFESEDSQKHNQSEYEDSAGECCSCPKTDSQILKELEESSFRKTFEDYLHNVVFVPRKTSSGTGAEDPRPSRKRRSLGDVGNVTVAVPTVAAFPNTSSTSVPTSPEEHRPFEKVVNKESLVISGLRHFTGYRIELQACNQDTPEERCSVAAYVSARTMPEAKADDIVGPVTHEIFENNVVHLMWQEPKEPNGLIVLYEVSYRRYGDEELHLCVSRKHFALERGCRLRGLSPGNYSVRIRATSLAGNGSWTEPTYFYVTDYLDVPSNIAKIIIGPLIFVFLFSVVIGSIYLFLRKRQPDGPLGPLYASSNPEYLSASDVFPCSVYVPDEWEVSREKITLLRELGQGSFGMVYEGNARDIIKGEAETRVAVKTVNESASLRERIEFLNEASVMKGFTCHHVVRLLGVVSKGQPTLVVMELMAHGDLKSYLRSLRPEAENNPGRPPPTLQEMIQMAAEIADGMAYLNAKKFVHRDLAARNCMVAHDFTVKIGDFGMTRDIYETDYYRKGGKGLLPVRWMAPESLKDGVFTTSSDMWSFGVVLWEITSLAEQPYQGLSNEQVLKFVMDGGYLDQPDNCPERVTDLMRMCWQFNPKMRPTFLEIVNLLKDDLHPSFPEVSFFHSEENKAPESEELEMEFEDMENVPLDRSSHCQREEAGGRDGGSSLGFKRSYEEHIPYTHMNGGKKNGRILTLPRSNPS
PKN1 (PRK1), sequence (Q16512 whole entry): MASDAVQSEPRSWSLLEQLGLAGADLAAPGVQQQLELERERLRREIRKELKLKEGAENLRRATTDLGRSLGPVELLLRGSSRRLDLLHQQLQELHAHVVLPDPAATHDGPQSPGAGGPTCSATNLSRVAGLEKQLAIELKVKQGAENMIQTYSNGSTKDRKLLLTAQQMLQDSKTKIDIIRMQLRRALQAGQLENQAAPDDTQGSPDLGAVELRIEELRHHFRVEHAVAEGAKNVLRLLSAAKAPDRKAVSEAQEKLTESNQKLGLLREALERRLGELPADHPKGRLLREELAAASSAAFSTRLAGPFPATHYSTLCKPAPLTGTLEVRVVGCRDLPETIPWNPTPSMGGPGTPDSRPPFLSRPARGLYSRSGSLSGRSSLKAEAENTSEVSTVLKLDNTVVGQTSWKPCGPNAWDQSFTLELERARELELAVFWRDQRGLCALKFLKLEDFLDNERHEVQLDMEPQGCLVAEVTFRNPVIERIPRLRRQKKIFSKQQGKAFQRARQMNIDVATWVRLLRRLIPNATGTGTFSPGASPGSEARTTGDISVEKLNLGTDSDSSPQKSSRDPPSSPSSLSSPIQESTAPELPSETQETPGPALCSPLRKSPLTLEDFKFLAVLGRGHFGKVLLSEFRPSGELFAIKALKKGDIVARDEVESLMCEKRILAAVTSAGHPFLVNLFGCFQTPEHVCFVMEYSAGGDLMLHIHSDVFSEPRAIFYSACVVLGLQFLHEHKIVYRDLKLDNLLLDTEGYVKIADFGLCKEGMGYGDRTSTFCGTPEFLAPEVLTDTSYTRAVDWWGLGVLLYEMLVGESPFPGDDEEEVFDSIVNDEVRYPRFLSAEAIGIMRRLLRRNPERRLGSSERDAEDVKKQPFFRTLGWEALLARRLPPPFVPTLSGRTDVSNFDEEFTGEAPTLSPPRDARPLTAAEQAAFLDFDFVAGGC
PHKG2, sequence (P15735 whole entry): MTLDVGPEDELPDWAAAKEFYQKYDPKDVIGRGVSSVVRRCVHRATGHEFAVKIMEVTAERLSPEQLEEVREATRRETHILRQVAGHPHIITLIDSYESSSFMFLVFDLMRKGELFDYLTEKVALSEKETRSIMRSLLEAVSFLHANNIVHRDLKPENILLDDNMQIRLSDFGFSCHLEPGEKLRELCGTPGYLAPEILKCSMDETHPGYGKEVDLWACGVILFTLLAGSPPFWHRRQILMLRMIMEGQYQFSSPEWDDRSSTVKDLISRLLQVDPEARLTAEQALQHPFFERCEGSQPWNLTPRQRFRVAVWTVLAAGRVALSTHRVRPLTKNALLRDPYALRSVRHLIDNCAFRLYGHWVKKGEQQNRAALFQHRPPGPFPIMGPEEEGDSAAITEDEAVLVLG

inhibition at 1 µM (MAP4K4 (HGK)) [%]	inhibition at 1 µM (AURKB (Aurora B)) [%]	inhibition at 1 µM (DCAMKL2 (DCK2)) [%]	inhibition at 1 µM (PHKG2) [%]	inhibition at 1 µM (PLK1) [%]	inhibition at 1 µM (CLK1) [%]	inhibition at 1 µM [1] [%]	inhibition at 1 µM (CDK9/cyclin T1) [%]	inhibition at 1 µM (SYK) [%]	inhibition at 1 µM (CSNK2A1 (CK2 alpha 1)) [%]	inhibition at 1 µM (RPS6KB1 (p70S6K)) [%]	inhibition at 1 µM (GSK3B (GSK3 beta)) [%]	inhibition at 1 µM (PKN1 (PRK1)) [%]	competition of PCM548 binding (catalytic domain of MKK7)	inhibition at 1 µM (MAPKAPK2) [%]	inhibition at 1 µM (FLT4 (VEGFR3)) [%]	inhibition at 1 µM (MAP4K5 (KHS1)) [%]	inhibition at 1 µM (NEK1) [%]	inhibition at 1 µM (MAPK1 (ERK2)) [%]	SMILES	EC50 (pATF2 in HEK293 cells) [µM]	also measured
58	79	-2	1	1	14	-6	3	19	0	5	-10	4	able to compete PCM548 binding	2	-2	22	5	-3	C=CC(=O)Nc1cccc(-c2n[nH]c3ccccc23)c1 [GO32]	2.79	inhibition at 1 µM (INSR): -10%
42	77	-1	7	3	2	-19	5	17	-2	0	-8	1	able to compete PCM548 binding	1	0	-11	2	3	C=CC(=O)Nc1cccc(-c2n[nH]c3cc(C)ccc23)c1 [GO80]	5.19	inhibition at 1 µM (INSR): -7%
